Source: patent publication US20240269194A1, “COMPOSITIONS AND METHODS FOR ISLET CELL TRANSPLANTS” (City of Hope, priority 2021, published 2024)
Entries after “also recorded” stand apart in the source; their conditions may differ.

Experiments:
[1] = molecular target: T1, gastrin receptor CCKBR (Homo sapiens, UniProt P32239); experiment: Gastrin receptor blockade with YM022, qPCR in human islets; assay type: cell-based; conditions: YM022 together with 100 nM gastrin, donors with high HbA1c
T1 construct: Human islets express the gastrin receptor CCKBR; from tissue; host or cells: isolated human pancreatic islets from donors
Experimental: To establish that gastrin effect is mediated through activation of the gastrin receptor CCKBR, islets were treated with either 100 nM gastrin or 100 nM gastrin together with the CCKBR antagonist YM022.

[2] = tested on: T1D patients; assay type: in vivo, human
Experimental: Gastrin is a natural hormone that is secreted by the stomach and is involved in fetal pancreas development. […] Building on these observations, it was tested whether gastrin treatment will improve islet engraftment, induced beta cell expansion/function, and enhanced islet transplant outcomes in T1D individuals. A gastrin analogue (GAST-17) was produced and obtained FDA-IND approval to evaluate its safety and efficacy in a Phase I/II, prospective, single-arm trial to improve outcomes in T1D recipients undergoing a single islet transplant and two 30-day courses for GAST-17. The trial has been initiated with the first two treated individuals achieving insulin independence with roughly half of the islet dose normally required.
The success of clinical islet transplantation depends on transplantation of adequate islet mass and minimizing graft loss secondary to ischemia and inflammation. After infusion into the portal vein, islets are exposed to damaging inflammatory factors (the so-called instant blood-mediated inflammatory reaction, IBMIR). This involves activation of the complement and coagulation cascades, ultimately resulting in clot formation and infiltration of leukocytes into the islets. The IBMIR may be triggered by islet surface molecules, such as tissue factor and collagen residues that are normally not in direct contact with the blood. Also, ischemic stress during islet isolation results in production of inflammatory mediators by islets. Strategies to mitigate the IBMIR include the treatment of recipients with anticoagulants or pre-conditioning islets with anti-inflammatory agents. As inflammatory reactions are thought to negatively impact islet engraftment in the early post-transplant period, etanercept, a TNFα mitigator, and anakinra, an IL-1 receptor antagonist, are used to limit acute transplant-related inflammation. […]
Treatment course 1. […] Subjects are monitored for adverse effects and assessed for preliminary efficacy at 1, 2.5, and 6 months after starting the first course of GAST-17. […]

[3] = tested on: non-diabetic Wistar rats; experiment: Beta and alpha cell content of pancreas by laser scanning cytometry after 30-day treatment; assay type: in vivo, rat
Experimental: The islet expansion effects of GAST-17 were evaluated in non-diabetic Wistar rats (10 males and 10 females in each group). At the end of 30-day treatment, animals were terminated, pancreata excised and immuno-stained for beta and alpha cell content using laser scanning cytometry (LSC) (FIGS. 2A and 2B).
Gastrin analogue, GAST-17, stimulates beta cell expansion. T2D individuals display a loss of beta cell numbers and function. Increasing beta cell mass is considered a possible therapy for T2D (37). The islet expansion effects of GAST-17 were evaluated in non-diabetic Wistar rats (10 males and 10 females in each group). At the end of 30-day treatment, pancreata were excised and stained for beta and alpha cell content counting using laser scanning cytometry (FIGS. 24A and 24B).

[4] = tested on: transplanted human islets; experiment: Human islets transplanted to livers of NOD mice: 18F-TCE4 microPET, insulin staining, blood glucose; assay type: in vivo, mouse; conditions: 150 μg/kg/dose three times daily, 30 days
Experimental: Isolated human islets were transplanted (Tx) to the livers of NOD mice followed by GAST-17 treatment for 30 days (150 μg/kg/dose, injected three times daily) (Tx+Treated, n=7) and compared to mice receiving islet transplant alone (Tx only, n=5) and untreated controls (Normal, n=5). After completion of treatment, whole mice and organs of interest were imaged (in vivo and ex vivo) with ^18F-TC-Exendin-4 (TCE4) using microPET and a high specific activity labeling technique developed at COH for targeting islets (49). […] Beta cell mass was calculated as percent beta cell area of the total cell surface area found on immunolabeled tissue sections. Data from 4 livers from mice treated with islet transplant alone (“−Gastrin”) and five livers from mice treated with islet transplant and gastrin treatment (“+Gastrin”) (˜32 slides per liver) were assessed.
Gastrin analogue, GATS-17, promotes expansion/neogenesis of transplanted human islets. Isolated human islets were transplanted (Tx) into livers of NOD/SCID mice followed by GAST-17 treatment for 30 days (150 μg/kg/dose, injected three times daily) (Tx+Treated, n=7) and compared to mice receiving islet transplant alone (Tx only, n=5) and untreated controls (Normal, n=5). After completion of treatment, whole mice and organs of interest were imaged (in vivo and ex vivo) with ^18F-TC-Exendin-4 (TCE4) using microPET (a high specific activity labeling technique developed at COH for targeting islets).

[5] = tested on: human islets; experiment: qPCR gene expression in isolated human islets treated for 48 hours; assay type: cell-based
Experimental: Isolated human islets from 11 donors with varied glycemic control (HbA1c 5.2-10.4) were treated with GAST-17 for 48 hours and gene expression was analyzed by qPCR. […] Gene expression levels were not increased in islets from donors with an HbA1c <6.0 (FIG. 9). The increase in insulin mRNA correlated with the HbA1c levels, with higher insulin transcripts seen in islets from donors with more elevated HbA1c (FIG. 10).

[6] = tested on: human islets; experiment: Long-term human islet culture with and without GAST-17, inflammatory gene expression; assay type: cell-based; conditions: non-diabetic donors, long-term culture (1516 days), 21% oxygen
Experimental: Long-term islet culture is associated with expression of inflammatory cytokines and islet stress/damage. Human islets from non-diabetic donors were cultured with and without GAST-17 long-term (1516 days) at normal oxygen concentrations (21%).

[7] = tested on: human islets; experiment: Human islets challenged with inflammatory cytokines, glucose-mediated insulin secretion; assay type: cell-based; conditions: inflammatory cytokine challenge
Experimental: Gastrin is expressed in insulin^+ and somatostatin^+ cells in islets from people with T2D. As noted, gastrin increased insulin/somatostatin in delta cells, and this correlated positively with islet donor A1c levels (64). Extending these published and new findings, human islets were challenged with inflammatory cytokines (to mimic the harsh environment of transplantation) in the presence and absence of GAST-17 and glucose-mediated insulin secretion was determined.

[8] = donors HbA1c >6.0 (n=5), P<0.0001

T1 sequence (P32239 whole entry): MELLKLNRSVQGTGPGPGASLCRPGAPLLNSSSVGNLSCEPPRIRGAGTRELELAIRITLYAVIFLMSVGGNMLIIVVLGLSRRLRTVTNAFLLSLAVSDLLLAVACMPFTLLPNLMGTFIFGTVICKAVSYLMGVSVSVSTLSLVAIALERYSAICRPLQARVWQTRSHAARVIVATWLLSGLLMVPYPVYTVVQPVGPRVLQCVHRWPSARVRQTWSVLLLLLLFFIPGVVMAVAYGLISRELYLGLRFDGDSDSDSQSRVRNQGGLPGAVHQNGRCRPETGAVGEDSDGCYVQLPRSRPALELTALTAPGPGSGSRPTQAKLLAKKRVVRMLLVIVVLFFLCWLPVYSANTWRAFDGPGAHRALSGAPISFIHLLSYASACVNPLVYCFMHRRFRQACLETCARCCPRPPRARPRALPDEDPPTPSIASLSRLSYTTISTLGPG

Molecule	insulin, somatostatin and glucagon mRNA levels [1]	insulin independence ([2]; first two T1D patients, single islet transplant <6,100 IEQ/kg)	engraftment and blood glucose normalization ([2]; two T1D individuals, 15 μg/kg twice daily, month 1 and 7, <6,100 IEQ/kg)	time to insulin freedom ([2]; two patients, single IT (<6,100 IEQ/kg BW))	percentage of alpha cells ([3]; 30-day treatment vs controls)	average percentage of beta cells of total cells per slide ([3]; 30-day treatment, all treatment groups vs controls)	native beta cell expansion, ex vivo imaging of the pancreas ([4]; p=0.000063)	18F-TCE4 uptake by islet grafts in liver, in vivo (whole body images) ([4]; vs control group, p=0.000015)	18F-TCE4 uptake by islet grafts, ex vivo (excised liver) ([4]; vs control group, p=0.000036)	gene expression levels (insulin, somatostatin, glucagon) ([5]; donors HbA1c <6.0)	insulin transcripts [5, 8]	somatostatin transcripts [5, 8]	glucagon transcripts ([5]; donors HbA1c >6.0 (n=5), P<0.02)	mRNA levels of transcription factors MAFA, MNX1, NKX2.2, NKX6.1, PDX1 and HHEX ([5]; only in HbA1c >6.0 group)	expression of IL-10 [6]	islet expression of inflammatory genes [6]	glucose-mediated insulin secretion [7]	human islet damage from inflammatory cytokines [7]	insulin+/somatostatin+ cell numbers [7]
Cc1cccc(NC(=O)N[C@@H]2N=C(c3ccccc3)c3ccccc3N(CC(=O)c3ccccc3C)C2=O)c1 [YM022]	remained un-changed	–	–	–	–	–	–	–	–	–	–	–	–	–	–	–	–	–	–
[Leu^15] Gastrin-17 [GAST-17]	–	achieving insulin independence with half of the islet mass normally required	rapid engraftment and total normalization of blood glucose	achieved insulin freedom within two weeks	did not change	significantly increased	significant expansion	significantly increased; also recorded: significantly higher	significantly increased; also recorded: significantly higher	not increased	significant increase	significant increase	significant increase	significant increases	increased expression of IL-10	reduced islet expression of inflammatory genes	enhanced insulin secretion	reduced human islet damage from inflammatory cytokines	increased insulin+/somatostatin+ cell numbers
